# According to patent publication US20230241164A1, “C-Type Natriuretic Peptides and Methods Thereof in Treating Cancer” (PHARMAIN CORPORATION, priority 2020, published 2023):
# Where “and” joins values, the source holds several entries; their conditions need not be identical. Equal entries are not always repeated. Numbered stars: 1 amine (or outer) side, 2 acyl side, 3 side chain; on linkers, the order of the positions; unused ones are H or OH. Bridge positions count the residues as written; N and C are the ends. Square brackets hold non-standard residues; d marks the D form. Peptide text beside a SMILES is read from it. * marks the point of attachment. C18 diacid = O=C(O)CCCCCCCCCCCCCCCCC(=O)*; γGlu = O=C(O)[C@H](CCC(=O)[*:2])N[*:1]; Aad = N[C@@H](CCCC(=O)O)C(=O)O; AEEA = NCCOCCOCC(=O)O
# What was measured:
# [1] = Pharmacokinetic study of dCNP-s1 and dCNP-s2: plasma CNP after subcutaneous bolus in CD-1 mice; assay type: in vivo; conditions: subcutaneous bolus 2.0 mg/Kg, FIG. 30
# Description: For this pharmacokinetic study, all animals (mice) for this study were maintained under a 12-hour light/12-hour dark cycle with free access to water and standard mouse diet (Lab Pico Rodent #5053; Animal Specialties, Woodburn, Oreg.). Male CD-1 mice (6-8 weeks old; Charles River, Hollister, Calif.) were treated with 2.0 mg/Kg of CNP derivative s1 (dCNP-s1; PharmaIN Corp, Bothell, Wash.), and CNP derivative s2 (dCNP-s2: PharmaIN Corp, Bothell, Wash.) via subcutaneous bolus administration between the shoulder blades.
# [2] = test system: TRAMPC-1 mouse prostate cancer cells; experiment: Prostate cancer subcutaneous model, treatment from day 6, tumor size; assay type: in vivo, mice; conditions: Anti-CD8 Ab 5 mg/kg i.p.
# Description: In this study, male C57BL/6J mice (6 weeks old, male, n=10) were purchased from Kyodo (Saga, Japan) and maintained under a 12-hour light/12-hour dark cycle with free access to water and standard mouse diet (MF diet; Oriental Yeast Co., Ltd. Tokyo Japan). Mice were implanted with TRAMPC-1 mouse prostate cancer cells (1,000,000 cells/mouse) (ATCC, Manassas, Va.) in the subcutaneous. From the 6th day (early stage of tumor growth), mice were treated with a bolus dose of dCNP (described in Example 1) (0.3 mg/kg s.c. or 1.0 mg/kg s.c.) with or without Anti-CD8 antibody (a-CD8; 5 mg/Kg i.p.; BioX cells, West Lebanon, N.H.) in buffer containing Methionine 100 mM (Tokyo Chemical Industry Co., Ltd., Tokyo, Japan); Sucrose 100 mM (Tokyo Chemical Industry Co., Ltd.); Histidine 50 mM (Tokyo Chemical Industry Co., Ltd.); in H2O (Otsuka Pharmaceutical, Tokushima, Japan)], Docetaxel (1 mg/kg i.p.) in Saline with or without Anti-CD8 Ab (5 mg/kg i.p.) as reference control, and or with Phosphate buffered saline (PBS) alone via i.p. as control. Mice were treated total of 14 days (5 days of once daily, 2 days of rest, 5 days of once-daily treatment and 2 days rest). Anti-CD8 Ab (a-CD8) was administered on −2, 1, 4, 7, 10 and 13th day. Tumor sizes were measured with caliper. Statistical analysis was performed by Student t-tests by using GraphPad Prism *P<0.0001 vs. Control or a-CD8 group (n=10). […]
# [3] = test system: TRAMPC-1 mouse prostate cancer cells; experiment: Gene expression within prostate tumor (quantitative RT-PCR); assay type: in vivo, mice; conditions: tumor harvested at day 30
# Description: (§1) In this study, male C57BL/6J mice (6 weeks old, male, n=10) were purchased from Kyodo (Saga, Japan) and maintained under a 12-hour light/12-hour dark cycle with free access to water and standard mouse diet (MF diet; Oriental Yeast Co., Ltd. Tokyo Japan). Mice were implanted with TRAMPC-1 mouse prostate cancer cells (1,000,000 cells/mouse) (ATCC, Manassas, Va.) in the subcutaneous. From the 19th day (averaged tumor size was 70 mm3), mice were treated with a bolus dose of long acting CNP derivative or dCNP (described in Example 1) (0.3 mg/kg s.c. or 1.0 mg/kg s.c.) in buffer [Methionine 100 mM (Tokyo Chemical Industry Co., Ltd., Tokyo, Japan); Sucrose 100 mM (Tokyo Chemical Industry Co., Ltd.); Histidine 50 mM (Tokyo Chemical Industry Co., Ltd.); in H2O (Otsuka Pharmaceutical, Tokushima, Japan)], Docetaxel (DTX 1 mg/kg i.p.) in Saline, all with or without anti-CD8 (5 mg/Kg i.p.; BioX cell; West Lebanon, N.H.) or Phosphate buffered saline (PBS) alone via i.p. All Docetaxel groups were used as mechanism of action comparator chemotherapeutic agent. Mice were treated for 2 weeks (5 days of once daily, 2 days of rest, 5 days of once-daily treatment and 2 days rest). Anti-CD8 Ab was administered every 3 days starting day 19th. Tumor was harvested at day 30 and extracted RNA, then Quantitative RT-PCR was performed; error bars are SEM. Statistical analysis was performed by Student t-tests by using GraphPad Prism *P<0.05 or **P<0.01 vs. Control group (n=3-6).
# [4] = test system: TRAMPC-1 mouse prostate cancer cells; experiment: Prostate cancer subcutaneous model, treatment from day 19, tumor size; assay type: in vivo, mice
# Description: as §1, with “Pharmaceutical.” for “Pharmaceutical,”, “(DTX1” for “(DTX 1”, “total of two” for “for 2”, “sizes were measured with caliper.” for “was harvested at day 30 and extracted RNA, then Quantitative RT-PCR was performed; error bars are SEM. Statistical analysis was performed by Student t-tests by using GraphPad Prism *P<0.05 or **P<0.01 vs. Control group (n=3-6).”
# [5] = Immune activation in normal healthy mice (blood FACS, spleen gene expression); assay type: in vivo; conditions: normal healthy mice, 0.1, 0.3, 1.0 mg/kg s.c. day 1-5
# Description: In this study, male C57BL/6J mice (6 weeks old n=3) were purchased from Kyodo (Saga, Japan) and maintained under a 12-hour light/12-hour dark cycle with free access to water and standard mouse diet (MF diet; Oriental Yeast Co., Ltd. Tokyo Japan). Mice were treated with a bolus dose of 0, 0.1, 0.3, and 1.0 mg/kg CNP derivative or dCNP (described in Example 1) in buffer (Methionine 100 mM (Tokyo Chemical Industry Co., Ltd., Tokyo, Japan), sucrose 100 mM (Tokyo Chemical Industry Co., Ltd.), histidine 50 mM (Tokyo Chemical Industry Co., Ltd.); in H2O (Otsuka Pharmaceutical, Tokushima, Japan)) or buffer alone (for control group). Administration is by bolus subcutaneous injection under isoflurane anesthesia, at day 1, 2, 3, 4, and 5. Blood was harvested on day 5 under the isoflurane vapor and plasma were obtained by added EDTA and red blood cells were removed by pharma lyse (BD, Franklin Lakes, N.J.). Cells were analyzed by FACS (BD, Franklin lakes, NJ). The spleen was harvested on day 5 under isoflurane vapor, then placed in the Tri reagent (Cosmobio, Tokyo, Japan) for further analysis. Statistical analysis was performed by Student t-tests by using GraphPad Prism *P<0.05 vs. Control. **P<0.01 vs Control (n=5).
# [6] = Pharmacokinetic study: plasma CNP (ELISA) after subcutaneous bolus in CD-1 mice; conditions: subcutaneous 2.0 mg/Kg, FIG. 1A
# Description: All test articles were formulated or dissolved in 100 mM sorbitol, 100 mM methionine, 20 mM histidine, pH 6.0. […] Blood samples were processed in K2EDTA tubes to obtain plasma. Plasma was analyzed by commercially available CNP ELISA kit from Phoenix Pharmaceuticals (cat #EKE-012-03). […] [SEQ ID NO. 6]. […] The details of the polymer are described in Castillo et al., Pharm. Res., (2012) 29(1); p 306-18, herein incorporated by reference in its entirety.
# Error bars represent standard deviation of n=5 plasma samples.
# [7] = bolus injection, healthy human volunteers; cited from earlier work
# [8] = species not stated; cited from earlier work
compound,measurement,setting,value
CC[C@H](C)[C@@H]1NC(=O)[C@H](CCCNC(=N)N)NC(=O)[C@H](CC(=O)O)NC(=O)[C@H](CC(C)C)NC(=O)[C@H](CCCCN)NC(=O)[C@H](CC(C)C)NC(=O)CNC(=O)[C@H](Cc2ccccc2)NC(=O)[C@@H](NC(=O)CNC(=O)COCCOCCNC(=O)COCCOCCNC(=O)CCCCCCCCCCCCCCCCC(=O)O)CSSC[C@@H](C(=O)O)NC(=O)CNC(=O)[C@H](CC(C)C)NC(=O)CNC(=O)[C@H](CO)NC(=O)[C@H](CCCC(N)=O)NC(=O)[C@H](CO)NC(=O)CNC1=O [dCNP-s1] ({C18 diacid-AEEA-AEEA}-GCFGLKLDRIGS[Aad](NH2)SGLGC-OH; disulfide 2-18),blood level of CNP relative to native CNP at similar weight/Kg dose,[1],10 fold
CC(=O)O[C@@]12CO[C@@H]1C[C@H](O)[C@@]1(C)C(=O)[C@H](O)C3=C(C)[C@@H](OC(=O)[C@H](O)[C@@H](NC(=O)OC(C)(C)C)c4ccccc4)C[C@@](O)([C@@H](OC(=O)c4ccccc4)[C@H]21)C3(C)C [Docetaxel],tumor growth suppressing effect in the presence of Anti-CD8 antibody,[2],remained
same,Ang 2 gene expression within the prostate tumor,[3],not
same,TGFβ gene expression within the prostate tumor,[3],not
same,alpha-smooth muscle actin (α-SMA) gene expression within the prostate tumor,[3],not
same,anti-tumor effect with anti-CD8 antibody,[4]; anti-CD8 5 mg/Kg i.p.,could not be neutralized by Anti-CD8
CCCCCCCCCCCCCCCCCC(=O)N[C@@H](CCCCN)C(=O)N[C@@H](CCCCN)C(=O)N[C@@H](CCCCN)C(=O)N[C@@H](CCCCN)C(=O)NCC(=O)NCC(=O)NCC(=O)NCC(=O)N[C@@H](CC(C)C)C(=O)N[C@@H](CO)C(=O)N[C@@H](CCCCN)C(=O)NCC(=O)N[C@H]1CSSC[C@@H](C(=O)O)NC(=O)CNC(=O)[C@H](CC(C)C)NC(=O)CNC(=O)[C@H](CO)NC(=O)[C@H](CCSC)NC(=O)[C@H](CO)NC(=O)CNC(=O)[C@H]([C@@H](C)CC)NC(=O)[C@H](CCCNC(=N)N)NC(=O)[C@H](CC(=O)O)NC(=O)[C@H](CC(C)C)NC(=O)[C@H](CCCCN)NC(=O)[C@H](CC(C)C)NC(=O)CNC(=O)[C@H](Cc2ccccc2)NC1=O [dCNP],cytotoxic (CD8) T-cells in blood,[5],increase
same,lethality,[4]; TRAMPC-1 tumor bearing mice,less lethal than cytotoxic chemotherapeutic agent (Docetaxel)
CC[C@H](C)[C@@H]1NC(=O)[C@H](CCCNC(=N)N)NC(=O)[C@H](CC(=O)O)NC(=O)[C@H](CC(C)C)NC(=O)[C@H](CCCCN)NC(=O)[C@H](CC(C)C)NC(=O)CNC(=O)[C@H](Cc2ccccc2)NC(=O)[C@@H](NC(=O)CNC(=O)COCCOCCNC(=O)COCCOCCNC(=O)CC[C@H](NC(=O)CCCCCCCCCCCCCCCCC(=O)O)C(=O)O)CSSC[C@@H](C(=O)O)NC(=O)CNC(=O)[C@H](CC(C)C)NC(=O)CNC(=O)[C@H](CO)NC(=O)[C@H](CCCC(N)=O)NC(=O)[C@H](CO)NC(=O)CNC1=O [dCNP-s2] ({C18 diacid-γGlu-AEEA-AEEA}-GCFGLKLDRIGS[Aad](NH2)SGLGC-OH; disulfide 2-18),blood level of CNP relative to native CNP at similar weight/Kg dose,[1],10 fold
CC[C@H](C)[C@@H]1NC(=O)[C@H](CCCNC(=N)N)NC(=O)[C@H](CC(=O)O)NC(=O)[C@H](CC(C)C)NC(=O)[C@H](CCCCN)NC(=O)[C@H](CC(C)C)NC(=O)CNC(=O)[C@H](Cc2ccccc2)NC(=O)[C@@H](NC(=O)CNC(=O)[C@H](CCCCN)NC(=O)[C@H](CO)NC(=O)[C@H](CC(C)C)NC(=O)CN)CSSC[C@@H](C(=O)O)NC(=O)CNC(=O)[C@H](CC(C)C)NC(=O)CNC(=O)[C@H](CO)NC(=O)[C@H](CCSC)NC(=O)[C@H](CO)NC(=O)CNC1=O [native CNP],plasma CNP,[6],low plasma level
same,heart rate,[7],significant increase
same,systolic and diastolic blood pressure,[7],significant decrease
same,half-life,[8],2 to 13 min and 2 min
